We go through nine compounds from ChEMBL document CHEMBL5512682, “Discovery of BMS-986308: A Renal Outer Medullary Potassium Channel Inhibitor for the Treatment of Heart Failure” (J Med Chem, 2024).

Series [1] is described as follows: Glutathione reactivity in human liver microsomes assessed as GSH-adduct formation at 10 uM incubated for 60 mins in presence of NADPH and GSH by HPLC-MS analysis. Particulars: 1 h; call rule not given here. The series is classed as ADME, Microsome.
The nature of series [2]: Metabolic stability in human liver microsomes assessed as parent compound remaining at 10 uM measured after 10 mins in presence of NADPH and GSH by UPLC-MS/MS analysis. Type of series: ADME, Microsome. Conditions: read-out: Stability. Background: Microsomes from liver hold many membrane-bound enzymes, among them those of drug oxidation.
Series [3] in a line: Metabolic stability in rat liver microsomes assessed as parent compound remaining at 10 uM measured after 10 mins in presence of NADPH and GSH by UPLC-MS/MS analysis. Type of series: ADME, Microsome. Conditions: read-out: Stability.
Series [4] addresses T1, hERG (KCNH2) (Homo sapiens, UniProt Q12809). Nature of the series: Inhibition of human ERG expressed in HEK293 cells at 10 uM incubated for 2 to 5 mins by Manual patch clamp assay relative to control. Particulars: HEK293 cells expressing hERG, time 2-5 min. Type of series: toxicity, cell-based. On the technique in general: In patch-clamp work, channel activity is measured electrically.

Series [5] concerns the target T2, ATP-sensitive inward rectifier potassium channel 1 (Homo sapiens, UniProt P48048).
T2 sequence (P48048 whole entry): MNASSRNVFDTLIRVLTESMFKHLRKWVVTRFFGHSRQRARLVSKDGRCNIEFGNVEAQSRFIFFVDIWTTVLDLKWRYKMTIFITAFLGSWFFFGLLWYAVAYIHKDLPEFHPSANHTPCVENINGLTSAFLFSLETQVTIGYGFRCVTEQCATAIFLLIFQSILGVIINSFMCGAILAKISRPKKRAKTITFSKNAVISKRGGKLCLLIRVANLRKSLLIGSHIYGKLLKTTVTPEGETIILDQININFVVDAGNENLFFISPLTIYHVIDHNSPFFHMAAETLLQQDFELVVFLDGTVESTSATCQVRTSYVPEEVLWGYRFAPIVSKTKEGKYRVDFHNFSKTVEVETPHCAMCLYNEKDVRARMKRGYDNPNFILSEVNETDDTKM
Description: Inhibition of human ROMK expressed in T-REX-CHO cells incubated for 3 to 8 mins by whole cell manual patch clamp assay

Series [6] deals with T2, ATP-sensitive inward rectifier potassium channel 1. The source holds these as a separate data set.
Description: Inhibition of human ROMK expressed in T-REX-CHO cells incubated for 30 mins by thallium flux assay
Series [7] deals with T1, hERG (KCNH2). Nature of the series: Inhibition of human ERG expressed in HEK293 cells at 1 uM incubated for 2 to 5 mins by Manual patch clamp assay relative to control. Conditions: HEK293 cells expressing hERG, time 2-5 min. The series is classed as toxicity, cell-based.
Series [8] is filed under the species Homo sapiens. The experiment in a line: Selectivity ratio of IC50 for inhibition of ERG expressed in HEK293 cells to IC50 for inhibition of human ROMK expressed in T-REX-CHO cells incubated for 30 mins by thallium flux assay. The series is classed as cell-based.
The target in series [9] is Voltage-gated inwardly rectifying potassium channel KCNH2 (Homo sapiens, UniProt Q12809). Nature of the series: Inhibition of human ERG expressed in HEK293 cells incubated for 2 to 5 mins by Manual patch clamp assay. The series is classed as toxicity, cell-based.
Series [10] is filed under the species Homo sapiens. The experiment in a line: Selectivity ratio of IC50 for inhibition of ERG expressed in HEK293 cells to IC50 for inhibition of human ROMK expressed in T-REX-CHO cells incubated for 3 to 8 mins by whole cell manual patch clamp assay. Type of series: cell-based.
The target of series [11] is T1, hERG (KCNH2). Nature of the series: Inhibition of human ERG expressed in HEK293 cells at 3 uM incubated for 2 to 5 mins by Manual patch clamp assay relative to control. Type of series: toxicity, cell-based. Particulars: HEK293 cells expressing hERG, time 2-5 min.

T1 sequence (Q12809 whole entry): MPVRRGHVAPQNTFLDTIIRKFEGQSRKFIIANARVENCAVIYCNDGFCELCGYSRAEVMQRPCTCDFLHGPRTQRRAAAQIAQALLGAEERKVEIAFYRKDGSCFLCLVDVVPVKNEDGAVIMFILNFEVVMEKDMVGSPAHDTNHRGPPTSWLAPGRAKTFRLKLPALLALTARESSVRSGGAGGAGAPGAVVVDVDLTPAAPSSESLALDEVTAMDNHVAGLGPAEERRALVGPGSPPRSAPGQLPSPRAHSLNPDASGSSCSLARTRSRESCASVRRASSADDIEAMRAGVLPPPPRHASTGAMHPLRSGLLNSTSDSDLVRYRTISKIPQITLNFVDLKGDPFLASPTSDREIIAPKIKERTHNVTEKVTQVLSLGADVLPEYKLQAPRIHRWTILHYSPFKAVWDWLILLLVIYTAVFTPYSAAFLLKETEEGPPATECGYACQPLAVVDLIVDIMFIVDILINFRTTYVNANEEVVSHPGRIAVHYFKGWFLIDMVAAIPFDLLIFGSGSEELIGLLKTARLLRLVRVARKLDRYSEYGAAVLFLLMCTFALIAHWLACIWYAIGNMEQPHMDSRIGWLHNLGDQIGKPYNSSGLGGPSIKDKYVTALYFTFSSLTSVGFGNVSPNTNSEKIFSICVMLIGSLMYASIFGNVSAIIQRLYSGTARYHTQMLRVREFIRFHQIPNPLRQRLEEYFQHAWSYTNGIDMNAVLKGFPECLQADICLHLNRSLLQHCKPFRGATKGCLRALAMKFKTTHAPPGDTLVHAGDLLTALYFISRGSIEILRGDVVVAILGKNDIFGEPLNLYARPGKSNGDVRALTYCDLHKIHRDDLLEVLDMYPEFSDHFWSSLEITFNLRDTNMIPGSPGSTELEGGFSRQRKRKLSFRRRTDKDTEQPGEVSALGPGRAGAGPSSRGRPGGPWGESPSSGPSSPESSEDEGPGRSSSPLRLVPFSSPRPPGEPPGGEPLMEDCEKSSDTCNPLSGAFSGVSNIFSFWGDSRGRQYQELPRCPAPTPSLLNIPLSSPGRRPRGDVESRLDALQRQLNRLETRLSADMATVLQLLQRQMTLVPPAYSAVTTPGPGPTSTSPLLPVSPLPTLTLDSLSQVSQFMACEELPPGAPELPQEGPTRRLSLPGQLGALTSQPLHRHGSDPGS
Chain of Voltage-gated inwardly rectifying potassium channel KCNH2 (Q12809 whole entry): as above

For `Cc1cc(-n2cc(CN3C[C@H](CO)N[C@H](c4ccc5c(c4C)COC5=O)C3)cn2)ncc1C#N`, the Activity entry in series [1] is listed as “Not Active”. The remaining at 10 min, 10 µM was 76% in [2] and 93% in [3].

The inhibition is the change of the read-out against control, counted positive when it falls. Low values mean a weak effect, high ones a strong effect. A word on the IC50: it is the concentration needed to halve the response being measured. Low values mean higher potency, high ones lower potency. With `Cc1cc(-n2ncc(CNC[C@H](O)c3ccc4c(c3C)COC4=O)n2)ncc1C#N`, at hERG (KCNH2) [4], the inhibition at 10 µM turned out to be 87%. Further, the IC50 in series [5] was 8.1 nM; in series [6], 52 nM. Also, the remaining at 10 min, 10 µM in series [2] worked out at 92%; in series [3] it was 94%.

As for `Cc1cc(-n2cc(CN3CCNC(c4ccc5c(c4C)COC5=O)C3C)cn2)ncc1C#N` (stereo unspecified), the outcome in series [1] was Active. For the same compound, the remaining at 10 min, 10 µM in series [2] turned out to be 46%; in series [3], 62%. This compound also had an inhibition at 1 µM at hERG (KCNH2) [7] of 45%.

As for `Cc1cc(-n2cc(CN3CC[C@@H](O)[C@H](c4ccc5c(c4C)COC5=O)C3)cn2)ncc1C#N`, in series [1], the Activity result is on record as “Not Active”. Also, the remaining at 10 min, 10 µM in [2] stood at 64%; in series [3], 75%.

For the compound `Cc1c([C@@H](O)CN2CCc3nc(-c4ccc(C#N)c(F)c4)ncc3C2)ccc2c1COC2=O`, the IC50 in series [5] worked out at 9.4 nM; in series [6] it was 8.8 nM; in [9], 410 nM. In addition, the figures for the remaining at 10 min, 10 µM in [2] and in series [3] were 62% and 96%, respectively. Besides, the Ratio IC50 in the series filed under Homo sapiens [8] and in the series listed under Homo sapiens [10] was 40 each time. Also, the inhibition at 1 µM at hERG (KCNH2) [7] came out at 71%.

Regarding `N#Cc1ccc(-c2ccc3c(c2)CCN(CCc2ccc4c(c2)COC4=O)C3)cc1F`, the figures for the IC50 in [5], in series [6] and in series [9] were 13 nM, 59 nM and 10 nM, respectively. The remaining at 10 min, 10 µM in series [2] is 72%; in series [3], 8%.

Take `Cc1cc(-n2cc(CN3CC(c4ccc5c(c4C)COC5=O)NCC3C)cn2)ncc1C#N` (stereo unspecified): the outcome in [1] was Active.

As for `N#Cc1ccc(-c2ccc3c(n2)CCN(C[C@H](O)c2ccc4c(c2)COC4=O)C3)cc1F`, the IC50 came out at 37 nM in series [5] and 61 nM in series [6]. The compound further registered an inhibition at 1 µM against hERG (KCNH2) [7] of 80%.

Turning to `Cc1cc(-n2cc(CN3CC(O)CC(c4ccc5c(c4C)COC5=O)C3)cn2)ncc1C#N` (stereo unspecified), in [1], the result was Active. Further, the remaining at 10 min, 10 µM in [2] is 54%; in series [3] it was 50%. Besides, at hERG (KCNH2) [11], the inhibition at 3 µM is 76%.
